# Measured values from patent publication US11478474B2, “2-(3′-(hydroxymethyl)-1-methyl-5-((5-(2-methyl-4-(oxetan-3-yl)piperazin-1-yl)pyridin-2-yl)amino)-6-oxo-1,6-dihydro-[3,4′-bipyridin]-2′-yl)-7,7-dimethyl-7,8-dihydro-2H-cyclopenta[4,5]pyrrolo[1,2-a]pyrazin-1(6H)-one as a BTK inhibitor” (HUTCHISON MEDIPHARMA LIMITED, priority 2020, dated 2022).
# Molecular target: BTK recombinant protein (Homo sapiens (Human), UniProt Q06187)
# Test: Determination of biochemical BTK (Z'-LYTE kinase assay)
# Conditions: not given
# Excerpt: Example 2 Determination of Biochemical BTK
# (§1) 1. Reagents and Materials
# BTK recombinant protein: Invitrogen, Cat #PV3363;
# Z′-LYTE® kinase test kit-tyrosine 1 peptide: Invitrogen, Cat #PV3190;
# Z′-LYTE® biochemical assay employs a fluorescence resonance energy transfer (FRET)—based, coupled-enzyme format and is based on the differential sensitivity of phosphorylated and non-phosphorylated peptides to proteolytic cleavage. Both ends of the short peptide substrate are labeled with two fluorescent groups to form a FRET paired combination. In the primary reaction (the Kinase Reaction), the kinase transfers the γ-phosphate of ATP to a single […] residue on the short peptide substrate. In the secondary reaction (the development reaction), the non-phosphorylated short peptides were recognized and cleaved by a site-specific protease (the development reagent). Phosphorylated short peptides can resist such cleavage. Cleavage of short peptides can disrupt the donor (such as coumarin) and receptor fluorophores (fluorescein) on the short peptides, while the phosphorylated short peptides can maintain FRET. The calculation method of the ratio is as follows, and the ratio of the respective emission signals generated by the donor fluorophores emitted (after excitation at 400 nm) to the receptors is calculated. Emission signal ratio=emitted light by coumarin (445 nm)/emitted light by fluorescein (520 nm). If the FRET short peptide is phosphorylated (such as no kinase inhibitor), the emitted light ratio will remain in a lower level. If the FRET short peptide is non-phosphorylated (such as kinase inhibitor), the emitted light ratio will be in a higher level. In this way, the inhibitory effects of different compound inhibitors on BTK kinase activity would be distinguished.
# The experiment were carried out according to the instructions of the Z′-LYTE® kinase test kit-tyrosine 1 peptide. Reagent preparation: 1.33× kinase buffer: 5× kinase buffer was diluted with water to 1.33× kinase buffer; an enzyme solution: the kinase was dissolved in 1.33× kinase buffer with the final working concentration being 3.32 nM; a short peptide solution: a short peptide stock solution (1 mM dissolved in DMSO) was dissolved in 1.33× kinase buffer with the final working concentration being 2 μM; Z′-LYTE Tyr01 phosphorylated short peptide solution, 0.6 μl of stock solution (1 mM dissolved in DMSO) was dissolved in 149.4 μl of 1.33× kinase buffer; an ATP solution: an ATP stock solution (10 mM aqueous solution) was dissolved in 1.33× kinase buffer with the final working concentration being 32 μM; a color-developing solution: color-developing solution B was dissolved in color-developing buffer with the final working concentration being 1× color-developing solution; 4× compound preparation: the compound was diluted in 3-fold gradient concentration to finally obtain 4% DMSO aqueous solution containing different concentrations of the compound, with the final working concentration being 3000, 1000, 333.33, 111.11, 37.04, 12.35, 4.12, 1.37 nM, 8 concentration points in total.
# Specific steps of the experiment: In the experiment, there were three control groups, each with 8 replicate wells, which were C1 100% inhibition group (no ATP), C2 0% inhibition group (with ATP), and C3 100% phosphorylation group, respectively. 2.5 μl of serially diluted compound was added to each well of a 384-well plate, with double replicate wells, and 4% DMSO solution was added to wells C1, C2, and C3. After that, except for wells C3, 2.5 μl of BTK enzyme solution was added to each remaining well, which was left to stand at 4° C. for 30 minutes. After that, except for wells C3, 2.5 μl of short peptide solution was added to each well, and 5 μl of phosphorylated short peptide solution was added to each of wells C3. 2.5 μl of 1.33× kinase buffer was added to each of wells C1 and C3, and 2.5 μl of ATP solution was added to each of the remaining wells. […]
# Sequence of BTK recombinant protein (Q06187 whole entry): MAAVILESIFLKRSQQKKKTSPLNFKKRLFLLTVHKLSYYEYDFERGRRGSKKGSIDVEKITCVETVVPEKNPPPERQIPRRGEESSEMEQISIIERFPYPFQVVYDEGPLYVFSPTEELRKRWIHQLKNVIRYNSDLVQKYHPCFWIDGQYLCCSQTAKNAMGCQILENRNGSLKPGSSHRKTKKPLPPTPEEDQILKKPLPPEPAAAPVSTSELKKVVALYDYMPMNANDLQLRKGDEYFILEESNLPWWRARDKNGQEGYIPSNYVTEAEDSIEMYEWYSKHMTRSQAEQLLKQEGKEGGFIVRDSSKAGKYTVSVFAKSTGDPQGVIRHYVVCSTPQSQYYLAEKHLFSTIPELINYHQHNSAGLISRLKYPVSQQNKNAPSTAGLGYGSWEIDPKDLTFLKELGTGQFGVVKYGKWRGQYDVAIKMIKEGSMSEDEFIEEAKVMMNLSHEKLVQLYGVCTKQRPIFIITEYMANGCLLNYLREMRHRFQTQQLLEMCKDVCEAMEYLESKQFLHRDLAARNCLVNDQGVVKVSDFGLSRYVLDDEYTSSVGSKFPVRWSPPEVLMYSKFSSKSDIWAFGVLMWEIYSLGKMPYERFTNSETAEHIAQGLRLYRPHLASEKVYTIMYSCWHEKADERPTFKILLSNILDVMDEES
row,Compound,IC50
1,"2-(3′-(hydroxymethyl)-5-((5-(2-methoxyethyl)-4-methyl-4,5,6,7-tetrahydropyrazolo[1,5-a]pyrazin-2-yl) amido)-1-methyl-6-oxo-1,6-dihydro-[3,4′-bispyridin]-2′-yl)-7,7-dimethyl-7,8-dihydro-2H-cyclopenta[4,5]pyrrolo[1,2-d][1,2,4]triazin-1(6H)-one optically Pure [Compound 120]",8 nM
2,CC(O)c1c(-c2cc(Nc3ccc(N4CCN(C5COC5)C[C@@H]4C)cn3)c(=O)n(C)c2)ccnc1-n1ccn2c3c(cc2c1=O)CC(C)(C)C3 (mixture of isomers) [Compound 114],> 3000 nM
3,CC1Cc2cc3c(=O)n(-c4nccc(-c5cc(Nc6ccc(N7CCN(C8COC8)C[C@@H]7C)cn6)c(=O)n(C)c5)c4CO)ccn3c2C1 (mixture of isomers) [Compound 160],3 nM
4,[2H]C(O)c1c(-c2cc(Nc3ccc(N4CCN(C5COC5)C[C@@H]4C)cn3)c(=O)n(C([2H])([2H])[2H])c2)ccnc1-n1ccn2c3c(cc2c1=O)CC(C)(C)C3 (some centres unmarked) [Compound 38],< 1 nM
5,CCC(=O)Nc1cc(-c2ccnc(-n3ccn4c5c(cc4c3=O)CC(C)(C)C5)c2CO)cn(C)c1=O [Compound 88],134 nM
6,"Cn1cc(-c2ccnc(-n3ccn4c5c(cc4c3=O)CC(C)(C)C5)c2CO)cc(N)c1=O [Compound 98, 2-(5-amino-3′-(hydroxymethyl)-1-methyl-6-oxo-1,6-dihydro-[3,4′-bispyridin]-2′-yl)-7,7-dimethyl-7,8-dihydro-2H-cyclopenta[4,5]pyrrolo[1,2-a]pyrazin-1(6H)-one]",1270 nM
7,C[C@H]1CN(C2COC2)CCN1c1ccc(Nc2cc(-c3ccnc(-n4ccn5c6c(cc5c4=O)CC(C)(C)C6)c3CO)cn(C)c2=O)c(F)c1 [Compound 103],> 3000 nM
8,Cn1cc(-c2ccnc(-n3ccn4c5c(cc4c3=O)CC(C)(C)C5)c2CO)cc(NC(=O)C2CCC2)c1=O [Compound 130],316 nM
9,Cn1cc(-c2ccnc(-n3ccn4c5c(cc4c3=O)CC(C)(C)C5)c2CO)cc(NC(=O)c2ccccc2)c1=O [Compound 131],2010 nM
10,CCn1cc(Nc2cc(-c3ccnc(-n4ccn5c6c(cc5c4=O)CCC6)c3CO)cn(C)c2=O)nn1 [Compound 138],218 nM
11,COc1ccc(Nc2cc(-c3ccnc(-n4ccn5c6c(cc5c4=O)CCC6)c3CO)cn(C)c2=O)nc1 [Compound 146],624 nM
12,Cc1ccc(Nc2cc(-c3ccnc(-n4ccn5c6c(cc5c4=O)CCC6)c3CO)cn(C)c2=O)nn1 [Compound 147],1560 nM
13,COCCN1CCn2nc(Nc3cc(-c4ccnc(-n5ccn6c7c(cc6c5=O)CCC7)c4CO)cn(C)c3=O)cc2C1 [Compound 148],112 nM
14,COC1CN(c2ccc(Nc3cc(-c4ccnc(-n5ccn6c7c(cc6c5=O)CCC7)c4CO)cn(C)c3=O)nc2)C1 [Compound 152],353 nM
15,COCc1cc(Nc2cc(-c3ccnc(-n4ccn5c6c(cc5c4=O)CCC6)c3CO)cn(C)c2=O)nn1C [Compound 153],117 nM
16,Cn1cc(-c2ccnc(-n3ccn4c5c(cc4c3=O)CCC5)c2CO)cc(Nc2cc3n(n2)CCOC3)c1=O [Compound 155],122 nM
17,Cc1nn(-c2nccc(-c3cc(Nc4ccc(N5CCN(C6COC6)C[C@@H]5C)cn4)c(=O)n(C)c3)c2CO)c(=O)c2cc3c(n12)CCCC3 [Compound 158],194 nM
18,COCCN1CCn2nc(Nc3cc(-c4ccnc(-n5cnn6c7c(cc6c5=O)CCCC7)c4CO)cn(C)c3=O)cc2C1 [Compound 194],65 nM
19,C[C@H]1COCCN1c1cnc(Nc2cc(-c3ccnc(-n4ncn5c6c(cc5c4=O)CC(C)(C)C6)c3CO)cn(C)c2=O)nc1 [Compound 195],38 nM
20,C[C@H]1CN(C2COC2)CCN1c1cnc(Nc2cc(-c3ccnc(-n4ncn5c6c(cc5c4=O)CC(C)(C)C6)c3CO)cn(C)c2=O)nc1 [Compound 197],66 nM
21,C[C@@H]1CN(c2ccc(Nc3cc(-c4ccnc(-n5ccn6c7c(cc6c5=O)CC(C)(C)C7)c4CO)nn(C)c3=O)nc2)[C@@H](C)CN1C1COC1 [Compound 201],5 nM
22,"COCc1c(-c2cc(N(C)c3ccc(N4CCN(C5COC5)C[C@@H]4C)cn3)c(=O)n(C)c2)ccnc1-n1ccn2c3c(cc2c1=O)CC(C)(C)C3 [Compound 223, (S)-2-(3′-(methoxymethyl)-1-methyl-5-(methyl(5-(2-methyl-4-(oxetan-3-yl)piperazin-1-yl)pyridin-2-yl)amino)-6-oxo-1,6-dihydro-[3,4′-bispyridin]-2′-yl)-7,7-dimethyl-7,8-dihydro-2H-cyclopenta[4,5]pyrrolo[1,2-a]pyrazin-1(6H)-one]",> 3000 nM

# Molecular target: phosphorylated BTK in Ramos cells (Homo sapiens (Human), UniProt Q06187)
# Sequence (Q06187 whole entry): as above
# Test: Determination of phosphorylated BTK in Ramos cells (BTK phospho-Y223 HTRF)
# Format: cell-based
# Conditions: anti-human IgM + hydrogen peroxide stimulation
# Protocol: Determination of Phosphorylated BTK in Ramos Cells
# as §1
# Ramos cells: Ramos cells were purchased from American Standard Biological Collection Center ATCC Cell Bank, PRMI 1640 medium containing L-glutamine, 1.5 g/L of sodium bicarbonate, 2.383 g/L of HEPES solution, 0.11 g/L of sodium pyruvate and 4.5 g/L of glucose was used, added 10% fetal bovine serum FBS, and placed in a 5% CO2, 37° C. cell incubator for normal culture;
# Phosphorylated BTK HTRF detection kit (BTK phospho-Y223 HTRF kit): Cisbio, Cat #63ADK017PEH;
# Ramos cells were starved in PRMI 1640 medium with 1% FBS for 2 hours. The starved Ramos cells were diluted with Hank's balanced salt solution to 5.0×10^6 cells/ml, seeded in a 96-well plate with 20 μL/well (1.0×10^5 cells/well), and cultured in a 5% CO2, 37° C. cell incubator. After culturing for 1 hour, the test compound was diluted with Hank's balanced salt solution in 4-fold gradient to the corresponding concentrations, and then 5 μL/well of the diluted test compound with different concentrations (the final concentrations of the test compound were 3.0, 0.75, 0.188, 0.047, 0.012, 0.0029, 0.0007 and 0.00018 μM, and the final concentration of DMSO was 0.3%, double replicate wells) or 5 μL/well of control solution (1.5% DMSO, 8 replicate wells) were added to 20 μL/well of cell culture system, which incubated together for another hour, then 5 μL/well of a mixed solution of human immunoglobulin M (final concentration was 10 μg/mL) and hydrogen peroxide (final concentration was 3.3 mM) diluted with Hank's balanced salt solution was added to the treating wells for the test compound and the control treating wells for anti-human immunoglobulin M, and 5 μL/well of Hank's balanced salt solution was added to negative control treating wells. The plate was incubated in a 5% CO2, 37° C. cell incubator for 10 minutes.
# 10 μL/well of cell lysis buffer was added to each well of a 96-well plate, which was mixed well and lysed at room temperature for 30 minutes. 16 μL/well of lysis buffer was pipetted to a new 384 well plate, and then added 4 μL/well of phosphorylated BTK antibody, centrifuged (1000 rpm) for 1 minute, then shaken for 1 minute, further centrifuged (1000 rpm) for 1 minute, and finally placed in a constant temperature incubator overnight. Detection was performed on the next day.
# The 384 well plate incubated overnight in the constant temperature incubator was taken out to detect the luminescence signal using the Envision microwell plate reader at the […]. The reading value at 665 nm/615 nm of each well multiplied by 104 was used as the signal value of each well.
# The average signal value of the wells supplemented with the mixed solution of human immunoglobulin M (final concentration was 10 μg/mL) and hydrogen peroxide (final concentration was 3.3 mM) without the test compound was regarded as the high value, and the average signal value of the wells without immunoglobulin M stimulation and without the test compound was regarded as the low value. According to the signal value in each well, the inhibition ratio (%) of each concentration of compounds was calculated, and the 205 model in XL-Fit 5.3 software (ID Business Solutions Limited) was used to obtain an IC50 value.
# The inhibition ratio is calculated as follows: inhibition ratio (%)=100%−{(treating well for the test compound−negative control treating well)/(control treating well for anti-human immunoglobulin M−negative control treating well)}×100%, wherein,
# Treating well for the test compound: represents the signal value of Ramos cells treated with anti-human immunoglobulin M, hydrogen peroxide and the test compound.
# Control treating well for anti-human immunoglobulin M: represents the signal value of Ramos cells treated with anti-human immunoglobulin M, hydrogen peroxide but without the test compound. […]
row,Compound,IC50
1,"2-(3′-(hydroxymethyl)-5-((5-(2-methoxyethyl)-4-methyl-4,5,6,7-tetrahydropyrazolo[1,5-a]pyrazin-2-yl) amido)-1-methyl-6-oxo-1,6-dihydro-[3,4′-bispyridin]-2′-yl)-7,7-dimethyl-7,8-dihydro-2H-cyclopenta[4,5]pyrrolo[1,2-d][1,2,4]triazin-1(6H)-one optically Pure [Compound 120]",5 nM
2,CC1Cc2cc3c(=O)n(-c4nccc(-c5cc(Nc6ccc(N7CCN(C8COC8)C[C@@H]7C)cn6)c(=O)n(C)c5)c4CO)ccn3c2C1 (mixture of isomers) [Compound 160],11 nM
3,COCC(C)n1cc(Nc2nc(-c3ccnc(-n4ccn5c6c(cc5c4=O)CC(C)(C)C6)c3CO)cn(C)c2=O)nn1 (centres unmarked) [Compound 42],341 nM
4,"CN1CCn2nc(Nc3cc(-c4ccnc(-n5ccn6c7c(cc6c5=O)CC(C)(C)C7)c4CO)cn(C)c3=O)cc2C1 [Compound 69, 2-(3′-(hydroxymethyl)-1-methyl-5-((5-methyl-4,5,6,7-tetrahydropyrazolo[1,5-a]pyrazin-2-yl)amino)-6-oxo-1,6-dihydro-[3,4′-bispyridin]-2′-yl)-7,7-dimethyl-7,8-dihydro-2H-cyclopenta[4,5]pyrrolo[1,2-a]pyrazin-1(6H)-one]",2 nM
